Test results: US4190657A, “Naphthyridine derivatives” (Synthelabo, priority 1976, dated 1980)
Read-outs that look alike come from different tables or passages of the source.

What was measured:
[1] = acute toxicity, 50 percent lethal dose (LD50), graphical method; type: in vivo; conditions: mouse, in vivo, ip, mice CD 1, intraperitoneal; Table II; read-out: ACUTE TOXICITY LD50 for intraperitoneal administration
Protocol: The 50 percent lethal dose (LD50) of the compounds is determined for mice of strain CD 1 by a graphical method.
The results are indicated in Table II below, for a representative number of compounds.

mice of the CD 1 strain = test: anoxia due to pressure reduction, survival time, mean active dose (MAD); type: in vivo, mice (CD 1 strain); conditions: Mus musculus, ip, mice CD 1, intraperitoneal, 10 minutes before the experiment, 190 mm of mercury; Table II; read-out: ANOXIA DUE TO PRESSURE REDUCTION, mean active dose (MAD), dose which increases the survival time by 100%
Protocol: Mice of the CD 1 strain are kept in an atmosphere depleted in oxygen, by setting up a partial vacuum (190 mm. of mercury, corresponding to 5.25% of oxygen).
The survival time of the animals is noted. This time is increased by the agents capable of favouring oxygenation in the tissues and, in particular, in the brain. The compounds studied are administered intraperitoneally in several doses 10 minutes before the experiment. The percentage increases of the survival time relative to the values obtained with control animals are calculated. The mean active dose (MAD), namely the dose which increases the survival time by 100%, is determined graphically.
The results are indicated in Table II below for a representative number of compounds.

[2] = tested on: curarised rats ("sleep" induced by sodium 4-hydroxy-butyrate); test: action on the duration of the "sleep" induced by sodium 4-hydroxy-butyrate (GHB) in curarised rats; type: in vivo, rats (male, Charles River strain); conditions: for TOTAL DURATION of the "sleep" / change in vivo at 10 mg/kg / change in vivo at 30 mg/kg: GHB 200 mg/kg i.v.; for TOTAL DURATION of the "sleep": over 75 minutes, comparison 54.12 ± 2.07; for change in vivo at 10 mg/kg / change in vivo at 30 mg/kg: read-out: DIFFERENCE IN % RELATIVE TO THE CONTROLS (total duration of the "sleep")
Protocol: This action was determined from the influence of the compounds on the duration of the "sleep" induced by sodium 4-hydroxy-butyrate (GHB) in curarised rats.
The animals used are male rats of the Charles River strain, weighing 200±20 g. The animals, curarised by alloferin given intraperitoneally at the rate of 1 mg/kg, are placed under artificial respiration by means of a mask applied over the snout (respiration frequency: 40/minute; volume respired: 14 cc). The oesophagus is ligatured beforehand so as to avoid air entering the stomach.
Fronto-parietal and occipital cortical electrodes make it possible to record the electrocorticographic activity on a Grass model 79P polygraph at a speed of 6 mm/sec. The animals are prepared under local anaesthesia (2% xylocaine). The rats are kept at a constant temperature (37.5° C.) throughout the experiment. Ten minutes after the end of the preparation of the rat, a dose of 200 mg/kg of Na 4-hydroxybutyrate is injected intravenously into the tail. […]
The traces are evaluated for periods of 15 minutes over the course of 75 minutes after the injection of "GHB". During this period of analysis, the total duration of the "sleep" is determined. A series of 15 comparisons makes it possible precisely to define the duration of the "GHB sleep".
The statistical analysis of the results is carried out with the aid of the Mann-Whitney "U" test.

[3] = acute toxicity, 50 percent lethal dose (LD50), graphical method; conditions: mouse, in vivo, Table III
[4] = ip, intraperitoneal, read-out: TOXICITY intraperitoneal
[5] = Rattus norvegicus, ip, 1.25 h, read-out: […] % RELATIVE TO THE CONTROLS (total duration of the "sleep"), 10 mg/kg intraperitoneally
[6] = Rattus norvegicus, ip, 1.25 h, read-out: […] % RELATIVE TO THE CONTROLS (total duration of the "sleep"), 30 mg/kg intraperitoneally
[7] = Rattus norvegicus, ip, 1.25 h, 30 mg/kg intraperitoneally
[8] = iv, read-out: TOXICITY intravenous
[9] = Rattus norvegicus, ip, 1.25 h, 10 mg/kg intraperitoneally

Row | Compound | LD50 [1] [mg/kg] | ED (100% increase in survival time) (mice of the CD 1 strain) [mg/kg] | LD50 [3, 4] [mg/kg] | TOTAL DURATION of the "sleep" ([2]; 30 mg/kg intraperitoneally) [minutes. seconds] | further results
1 | COC(=O)[C@@H]1CC(=O)n2c3c(c4ccccc42)CCN(C)[C@@H]31 (relative stereo) [1 (m.s.cis), Methyl 1,2,3,3a,4,5-hexahydro-3-methyl-6-oxo-6H-indolo[3,2,1-de][1,5]naphthyridine-4-carboxylate] | 170 | 4 |  |  | 
2 | CCOC(=O)[C@@H]1CC(=O)n2c3c(c4ccccc42)CCN(C)[C@@H]31 (relative stereo) [30 (m.s.)] | 110 | 9 |  |  | 
3 | COC(=O)[C@@H]1CC(=O)n2c3c(c4ccccc42)CCN(C)[C@H]31 (relative stereo) [Compound 1 trans m.s., Methyl 1,2,3,3a,4,5-hexahydro-3-methyl-6-oxo-6H-indolo[3,2,1-de][1,5]naphthyridine-4-carboxylate] |  |  | 185 |  | TOTAL DURATION of the "sleep" ([2]; 40 mg/kg intraperitoneally): 32.01 ± 2.59 minutes. seconds; change in vivo at 40 mg/kg ([2]; Rattus norvegicus, ip, 1.25 h, read-out: […] % RELATIVE TO THE CONTROLS (total duration of the "sleep")): -41%; LD50 ([3]; intravenous, read-out: TOXICITY intravenous): 47 mg/kg
4 | COC(=O)[C@@H]1CC(=O)n2c3c(c4ccccc42)CCN(CCC(C)=O)[C@@H]31 (relative stereo) [Compound 49 m.s.cis] |  |  | 600 | 38.51 ± 3.12 | TOTAL DURATION of the "sleep" ([2]; 10 mg/kg intraperitoneally): 35.22 ± 2.26 minutes. seconds; change in vivo at 10 mg/kg [2, 5]: -35%; change in vivo at 30 mg/kg [2, 6]: -28%
5 | COC(=O)[C@@H]1CC(=O)n2c3c(c4cc(Cl)ccc42)CCN[C@@H]31 (relative stereo) [Compound 58 cis-isomer] |  |  | 190 | 36.08 ± 2.47 | change in vivo at 30 mg/kg [2, 6]: -33%
6 | COC(=O)[C@@H]1CC(=O)n2c3c(c4cc(Cl)ccc42)CCN[C@H]31 (relative stereo) [Compound 58 trans-isomer] |  |  | 170 | 31.12 ± 2.18 | change in vivo at 30 mg/kg [2, 6]: -42%
7 | COC(=O)[C@@H]1CC(=O)n2c3c(c4cc(F)ccc42)CCN(C)[C@@H]31 (relative stereo) [Compound 60 cis-isomer] |  |  | 725 |  | TOTAL DURATION of the "sleep" ([2]; 10 mg/kg intraperitoneally): 34.22 ± 2.47 minutes. seconds; change in vivo at 10 mg/kg [2, 5]: -37%
8 | CC(O)CCN1CCc2c3n(c4ccccc24)C(=O)CCC31 (single isomer, unassigned) [35 (base, isomer A)] | 150 | 9 |  |  | 
9 | CC(O)CN1CCc2c3n(c4ccccc24)C(=O)CCC31 (single isomer, unassigned) [Compound 63 isomer A] |  |  | 125 | 34.52 ± 2.14 | change in vivo at 30 mg/kg [2, 7]: -36%; LD50 [3, 8]: 75 mg/kg
10 | CCN1CCc2c3n(c4ccccc24)C(C)CCC31 (stereo not shown) [28 (m.s.)] | 40 | 4.5 |  |  | 
11 | CN1CCc2c3n(c4ccccc24)C(=O)CCC31 (stereo not shown) [Compound 2 (base), 1,2,3,3a,4,5-Hexahydro-3-methyl-6H-indolo[3,2,1-de][1,5]naphthyridin-6-one] | 85 | 6 |  |  | 
12 | CCN1CCc2c3n(c4ccccc24)C(=O)CCC31 (stereo not shown) [Compound 3] | 58 | 9 |  |  | 
13 | CC1=CCC2c3c(c4ccccc4n31)CCN2C (stereo not shown) [Compound 9, 1,2,3,3a-Tetrahydro-3,6-dimethyl-4H-indolo[3,2,1-de][1,5]naphthyridine] | 78 | 6.5 |  |  | 
14 | CC1CCC2c3c(c4ccccc4n31)CCN2C (stereo not shown) [Compound 10] | 50 | 6.5 |  |  | 
15 | Cc1ccc2c(c1)c1c3n2C(=O)CCC3NCC1 (stereo not shown) [Compound 11] |  |  | 155 | 34.08 ± 1.21 | change in vivo at 30 mg/kg [2, 7]: -37%; LD50 [3, 8]: 105 mg/kg
16 | COC(=O)CCN1CCc2c3n(c4ccccc24)C(=O)CCC31 (stereo not shown) [Compound 19] |  |  | 680 | 38.59 ± 1.20 | change in vivo at 30 mg/kg [2, 7]: -28%; LD50 [3, 8]: 103 mg/kg
17 | CCN1CCc2c3n(c4ccccc24)C(C)(O)CCC31 (stereo not shown) [Compound 21] | 75 | 7 |  |  | 
18 | CCCN1CCc2c3n(c4ccccc24)C(C)(O)CCC31 (stereo not shown) [Compound 22] | 105 | 8 |  |  | 
19 | CCN1CCc2c3n(c4ccccc24)C(C)=CCC31 (stereo not shown) [Compound 26] | 67 | 10 |  |  | 
20 | CC(=O)CCN1CCc2c3n(c4ccccc24)C(=O)CCC31 (stereo not shown) [Compound 33] | 170 | 8 |  |  | 
21 | COc1ccc2c(c1)c1c3n2C(=O)CCC3N(C)CC1 (stereo not shown) [Compound 38] | 65 | 8 |  |  | 
22 | COC(=O)C1CC(=O)n2c3c(c4cc(Cl)ccc42)CCNC31 (stereo not shown) [Compound 51] |  |  | 760 | 37.51 ± 2.12 | change in vivo at 30 mg/kg [2, 6]: -30%
23 | CN1CCc2c3n(c4ccc(Cl)cc24)C(=O)CCC31 (stereo not shown) [Compound 53] | 150 | 8 |  |  | 
24 | O=C1CCC2NCCc3c2n1c1ccc(F)cc31 (stereo not shown) [Compound 54] |  |  | 100 | 28.28 ± 4.28 | TOTAL DURATION of the "sleep" ([2]; 10 mg/kg intraperitoneally): 40.01 ± 5.00 minutes. seconds; change in vivo at 10 mg/kg [2, 9]: -26%; change in vivo at 30 mg/kg [2, 7]: -47%
25 | CC(=O)CCN1CCc2c3n(c4ccc(Cl)cc24)C(=O)CCC31 (stereo not shown) [Compound 56] |  |  | 575 | 30.39 ± 3.01 | TOTAL DURATION of the "sleep" ([2]; 10 mg/kg intraperitoneally): 43.07 ± 3.26 minutes. seconds; change in vivo at 10 mg/kg [2, 9]: -20%; change in vivo at 30 mg/kg [2, 7]: -43%
26 | CC(=O)CN1CCc2c3n(c4ccccc24)C(=O)CCC31 (stereo not shown) [Compound 62] | 190 | 10 |  |  | 
27 | O=C1CCC2NCCc3c2n1c1cccc(Cl)c31 (stereo not shown) [Compound 65] |  |  | 54 |  | TOTAL DURATION of the "sleep" ([2]; 10 mg/kg intraperitoneally): 34.51 ± 1.42 minutes. seconds; change in vivo at 10 mg/kg [2, 9]: -36%
28 | Cc1ccc2c3c4n(c2c1)C(=O)CCC4N(C)CC3 (stereo not shown) [Compound 69] |  |  | 88 |  | TOTAL DURATION of the "sleep" ([2]; 10 mg/kg intraperitoneally): 29.46 ± 1.27 minutes. seconds; change in vivo at 10 mg/kg [2, 9]: -45%
